Assay results as given in patent US20080039482A1, “SULFONAMIDO-MACROCYCLES AS TIE2 INHIBITORS AND SALTS THEREOF, PHARMACEUTICAL COMPOSITIONS COMPRISING SAME, METHODS OF PREPARING SAME AND USES OF SAME” (priority 2006, published 2008).

Key:
Aurora-C = target: T1, Aurora-C (Homo sapiens, UniProt Q9UQB9); assay: Aurora C HTRF assay (assay 5); assay type: biochemical; details: IC50 assay 5/IC50 assay 2
T1 construct: GST; made in house; host or cells: HEK293 (the text adds '(Sf9)', which contradicts this)
T1 sequence (Q9UQB9 1-309): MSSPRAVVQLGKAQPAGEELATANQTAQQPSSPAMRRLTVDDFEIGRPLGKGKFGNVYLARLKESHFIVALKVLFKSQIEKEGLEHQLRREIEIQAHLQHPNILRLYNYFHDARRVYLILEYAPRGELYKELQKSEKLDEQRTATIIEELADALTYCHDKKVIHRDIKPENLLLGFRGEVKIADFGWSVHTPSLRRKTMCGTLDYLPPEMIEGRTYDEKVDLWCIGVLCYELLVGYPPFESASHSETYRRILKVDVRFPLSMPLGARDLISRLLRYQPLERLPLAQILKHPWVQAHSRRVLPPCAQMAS
Text: Assay 5: Aurora C HTRF Assay
Aurora-C inhibitory activity of compounds of the present invention was quantified employing the Aurora-C HTRF assay as described in the following paragraphs.
Recombinant fusion protein of GST and human Aurora-C was expressed in transiently transfected HEK293 cells (Sf9) and purified by Glutathion-Sepharose affinity chromatography. As substrate for the kinase reaction biotinylated peptide biotin-Ttds-FMRLRRLSTKYRT (C-terminus in amid form) was used which can be purchased e.g. form the company JERINI peptide technologies (Berlin, Germany). Aurora-C was incubated for 60 min at 22° C. in the presence of different concentrations of test compounds in 5 μl assay buffer [25 mM Hepes/NaOH pH 7.4, 0.5 mM MnCl2, 2.0 mM dithiothreitol, 0.1 mM sodium ortho-vanadate, 10 μM adenosine-tri-phosphate (ATP), […] substrate, 0.01% (v/v) TritonX-100 (Sigma), 0.05% (w/v) bovine serum albumin, 1% (v/v) dimethylsulfoxide]. The concentration of Aurora-C was adjusted depending of the activity of the enzyme lot and was chosen appropriate to have the assay in the linear range, typical concentrations were in the range of 0.3 nM. The reaction was stopped by the addition of 5 μl of a solution of HTRF detection reagents (0.2 μM streptavidine-XLent and 1.4 nM Anti-Phospho-(Ser/Thr) Akt substrate-Cryptate (Cis biointernational, France, product no. 61P02KAE), a labeled Phospho-(Ser/Thr) Akt substrate antibody [product #9611B, Cell Signalling Technology, Danvers, Mass., USA] labeled with Europium Cryptate, in an aqueous EDTA-solution (40 mM EDTA, 400 mM KF, 0.05% (w/v) bovine serum albumin in 25 mM HEPES/NaOH pH 7.0).
The resulting mixture was incubated 1 h at 22° C. to allow the binding of the biotinylated phosphorylated peptide to the streptavidine-XLent and the Anti-Phospho-(Ser/Thr) Akt substrate-Cryptate. Subsequently the amount of phosphorylated substrate was evaluated by measurement of the resonance energy transfer from the Prot-A-EuK to the streptavidine-XLent. Therefore, the fluorescence emissions at 620 nm and 665 nm after excitation at 350 nm was measured in a HTRF reader, e.g. a Rubystar (BMG Labtechnologies, Offenburg, Germany) or a Viewlux (Perkin-Elmer). The ratio of the emissions at 665 nm and at […] was taken as the measure for the amount of phosphorylated substrate. The data were normalised (enzyme reaction without inhibitor=0% inhibition, all other assay components but no enzyme=100% inhibition) and IC50 values were calculated by a 4 parameter fit using an inhouse software.

Tie2 = Tie2 (Homo sapiens, UniProt Q02763); assay: Tie2 ELISA assay (assay 1): Ang2-stimulated Tie2 autophosphorylation in transfected CHO cells; assay type: cell-based; parameters: expressed in transfected cells; host or cells: CHO (DHFR selection); details: CHO Tie2/DHFR cells stimulated by angiopoietin-2, pIC50 = -log IC50 in molar concentration, read-out: Tie 2 activity (assay 1)
Tie2, sequence (Q02763 23-1124, species assumed): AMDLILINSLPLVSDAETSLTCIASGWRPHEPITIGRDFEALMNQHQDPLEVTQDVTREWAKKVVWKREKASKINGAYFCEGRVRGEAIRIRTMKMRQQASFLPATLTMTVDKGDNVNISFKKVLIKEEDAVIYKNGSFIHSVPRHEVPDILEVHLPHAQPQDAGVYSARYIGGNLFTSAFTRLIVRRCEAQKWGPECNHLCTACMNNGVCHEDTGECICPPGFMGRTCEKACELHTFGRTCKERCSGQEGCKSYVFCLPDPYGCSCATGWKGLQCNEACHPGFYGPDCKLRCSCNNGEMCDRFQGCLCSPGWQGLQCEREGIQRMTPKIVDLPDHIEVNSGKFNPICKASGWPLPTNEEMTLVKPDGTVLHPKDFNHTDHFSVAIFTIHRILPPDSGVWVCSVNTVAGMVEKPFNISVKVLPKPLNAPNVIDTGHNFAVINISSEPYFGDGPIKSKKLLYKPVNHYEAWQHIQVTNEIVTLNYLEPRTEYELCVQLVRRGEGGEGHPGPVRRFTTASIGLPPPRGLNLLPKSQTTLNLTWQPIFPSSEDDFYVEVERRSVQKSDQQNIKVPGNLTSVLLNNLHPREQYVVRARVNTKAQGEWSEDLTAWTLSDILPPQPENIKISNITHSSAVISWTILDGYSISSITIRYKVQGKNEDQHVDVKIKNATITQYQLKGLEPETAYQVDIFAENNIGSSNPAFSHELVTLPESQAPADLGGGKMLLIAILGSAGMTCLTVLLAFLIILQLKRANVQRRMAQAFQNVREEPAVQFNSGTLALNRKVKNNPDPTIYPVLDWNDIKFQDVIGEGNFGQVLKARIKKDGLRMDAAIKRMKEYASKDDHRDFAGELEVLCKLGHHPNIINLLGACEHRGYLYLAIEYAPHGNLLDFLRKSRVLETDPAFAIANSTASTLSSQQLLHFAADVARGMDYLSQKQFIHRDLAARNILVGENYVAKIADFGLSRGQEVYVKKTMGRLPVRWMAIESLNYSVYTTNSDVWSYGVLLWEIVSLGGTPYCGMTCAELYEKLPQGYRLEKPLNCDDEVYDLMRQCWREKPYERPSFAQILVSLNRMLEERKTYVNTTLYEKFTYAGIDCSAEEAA
Procedure: Cellular activity of compounds of the present invention as inhibitors of Tie2 kinase activity was measured employing a Tie2 ELISA assay as described in the following paragraphs. Herein CHO cell-cultures, which are stably transfected by known techniques with Tie2 using DHFR deficiency as selection marker, are stimulated by angiopoietin-2. The specific autophosphorylation of Tie2 receptors is quantified with a sandwich-ELISA using anti-Tie2 antibodies for catch and anti-phosphotyrosine antibodies coupled to HRP for detection.
• 96 well tissue culture plate, sterile, Greiner • 96 well FluoroNunc plate MaxiSorp Surface C, Nunc • 96 well plate polypropylene for compound dilution in DMSO • CHO Tie2/DHFR (transfected cells) • PBS−; PBS++, DMSO • MEM alpha Medium with Glutamax-I without Ribonucleosides and Deoxyribonucleosides (Gibco #32561-029) with 10% FCS after dialysis! and 1% PenStrep • Lysis buffer: 1 Tablet “Complete” protease inhibitor • 1 cap Vanadate (1 mL>40 mg/mL; working solution 2 mM) • ad 50 mL with Duschl-Puffer • pH 7.6 • Anti-Tie2-antibody 1:425 in Coating Buffer pH 9.6 • Stock solution: 1.275 mg/mL>working: 3 μg/mL • PBST: 2 bottles PBS (10×)+10 ml Tween, fill up with VE-water • RotiBlock 1:10 in VE-water • Anti-Phosphotyrosine HRP-Conjugated 1:10000 in 3% TopBlock • 3% TopBlock in PBST • BM Chemiluminescence ELISA Substrate (POD) • solution B 1:100 solution A • SF9 cell culture medium • Ang2-Fc in SF9 cell culture medium Cell Experiment: • Dispense 5×10^4 cells/well/98 μL in 96 well tissue culture plate • Incubate at 37° C./5% CO2 • After 24 h add compounds according to desired concentrations • Add also to control and stimulated values without compounds 2 μL DMSO • And mix for a few min at room temperature • Add 100 μL Ang2-Fc to all wells except control, which receives insect medium • Incubate 20 min at 37° C. • Wash 3× with PBS++ • Add 100 μl Lysis buffer/well and shake a couple of min at room temperature • Store lysates at […] before utilizing for the ELISA Performance of Sandwich-ELISA • Coat 96 well FluoroNunc Plate MaxiSorp Surface C with anti-Tie2 mAb • 1:425 in Coating buffer pH 9.6; 100 μL/well overnight at 4° C. • Wash 2× with PBST • Block plates with 250 μL/well RotiBlock 1:10 in VE-water • Incubate for 2 h at room temperature or overnight at 4° C. shaking • Wash 2× in PBST • Add thawed lysates to wells and incubate overnight shaking at 4° C. • Wash 2× with PBST • Add 100 μL/well anti-Phosphotyrosine HRP-Conjugated 1:10000 in 3% • TopBlock (3% TopBlock in PBST) and incubate overnight under shaking • Wash 6× with PBST • Add 100 μL/well BM Chemiluminescence ELISA Substrate (POD) • solutions 1 und 2 (1:100) • Determine luminescence with the LumiCount. Assay 2: Tie-2-Kinase HTRF-Assay Without Kinase Preactivation

Selectivity vs. Aurora C (Aurora-C): >20 fold
IC50 (Tie2): 100 to 1000 nM
Structure (SMILES): CC(C)(C(=O)Nc1ccc(-c2cnc3nc2NCCCNS(=O)(=O)c2cccc(c2)N3)cc1)c1ccc(Cl)cc1 [Example 13, 2-(4-Chloro-phenyl)-N-[4-(13,13-dioxo-13λ^6-thia-2,4,8,12,19-pentaaza-tricyclo[12.3.1.1^3,7]-nonadeca-1(18),3(19),4,6,14,16-hexaen-6-yl)-phenyl]-isobutyramide]
